Measurements: patent EP0021207A1, “Alphacarbamoyl-pyrrolpropionitriles, process for their preparation and pharmaceutical preparations containing them” (priority 1979, dated 1981)

Legend:
[1] = tested on: BCG-immunisierten Makrophagen; assay type: cell-based, Charles River-Ratten; conditions: in vitro, result in words
Adjuvansarthritis = experiment: Adjuvant arthritis test in the rat; assay type: in vivo; conditions: po, Ratten, peroral, read-out: hoch aktiv bei peroralen Dosen bis hinunter zu
Source text: Die Verbindungen der Erfindung zeigen wertvolle pharmakologische Eigenschaften, in erster Linie antiinflammatorische und antiarthritische Wirkungen. Diese können in in-vitro oder in-vivo Versuchen nachgewiesen werden. In den letzteren werden vorzugsweise Säugetiere, z.B. Ratten, Katzen, Meerschweinchen oder Hunde als Testobjekte verwendet. Die Verbindungen der Erfindung können ihnen enteral, vorzugsweise oral, parenteral, z.B. subkutan oder intravenös, oder topisch, z.B. in Form von Lösungen in Wasser oder Oel, oder in Form von Stärke enthaltenden Suspensionen, verabreicht werden. Die verwendete Dosis kann in einem Bereich von ungefähr zwischen 0,1 und 100 mg/kg/Tag, vorzugsweise ungefähr 1 und 50 mg/kg/Tag, in erster Linie ungefähr 2 und. 25 mg/kg/Tag, liegen. Die für die genannten Wirkungen gewählten Tests sind entweder klassische Versuchsmethoden, z.B.der Carrageenin-Pfotenödem- oder der Adjuvansarthritis-Test in der Ratte, der Synoviitis-Versuch am Hund oder der Test, in welchem das durch ultraviolettes Licht hervorgerufene Erythem ausgewertet wird, oder moderne Testmethoden. Solche sind die neutrale Protease Hemmung [beschrieben in Arthritis Rheum. 17, 47 (1974)] oder die Hemmung der Leukozyten Chemotaxis [N.Y.Acad. Sci., 256, 177 (1975)]. […]

SMILES	Einfluss auf die Makrophagen-Chemotaxis [1]	minimal effective dose (Adjuvansarthritis) [mg/kg/day]
COc1ccc2c(c1)c(CC(=O)O)c(C)n2C(=O)c1ccc(Cl)cc1 [Indomethacin]	beeinflusst das Indomethacin die Makrophagen-Chemotaxis nicht	
Cn1cccc1C(=O)C(C#N)C(=O)Nc1ccccc1 (stereo not drawn) [1-Methyl-β-oxo-α-phenylcarbamoyl-2-pyrrol-propionitril]		≥ 2
